Key:
Type in all cases: in vivo
[1] = tested on: cortisol (CORT); assay: Neurotransmitter measurement by ELISA: CORT; conditions: trunk blood
Method: (§1) The rats were housed in individual cages with light and temperature control (temperature: 21±2° C.; lights on at 8:00 AM and off at 8:00 PM). Food and water were available ad libitum. All experimental procedures were carried out in strict accordance with the National Institutes of Health guidelines for care and use of experimental animals. After an initial habituation period of 1 week, all animals were given access to bottle containing a sucrose solution in tap water for 1 hour and were tested for the baseline data of the sucrose preference test. According to the baseline data, the animals were divided into 9 groups (n=10-12 animals/each group), that is the control group, the stressed group, the stressed+fluoxetine group, the stressed+Example 1 group, the stressed+ginseng extract group, the stressed+Radix paeoniae Alba extract group, the stressed+Tree Peony Bark extract group, the stressed+Sharpleaf Galangal Fruit extract group, and the stressed+Radix Polygonum multiflorum Preparata extract group. The animals were subjected to 2 to 5 different mild stressors per day for 5 weeks. The mild stressors included water and food deprivation, cage tilt, continuously lighting, cage soiling, stroboscopic lighting, restricted access to food, and tail pinching. Control animals were not subjected to the stress protocol, and the stressed animals were subjected to the mild stressors and given the same amount of water as control group. The animals of the stressed+fluoxetine group were subjected to the mild stressors and treated with fluoxetine capsules. The animals of the stressed+Example 1 group were subjected to the mild stressors and treated with the composition of Example 1. The animals of the stressed+single extract group were subjected to the mild stressors and treated with the single extract.
(§2) The rats were sacrificed and the trunk blood was collected into the collection tubes coated with standard heparin. […] The levels of corticotropin-releasing hormone (CRH), adrenocorticotropic hormone (ACTH) and cortisol (CORT) were detected by ELISA. […]

[2] = tested on: chronically stressed rats; assay: Sucrose preference test in chronically stressed rats
Method: as §1
The rats could select between two bottles of liquid freely, one with 0.8% sucrose solution and one with tap water, after 23 h food and water deprivation. To avoid the rats prefer to drink one side of the water, the position of the two bottles were exchanged every half an hour. Tap water consumption and sucrose consumption were measured by weighting the bottles, and the sucrose preference were calculated based on the following formula: […]
The rats were housed in individual cages with light and temperature control (temperature: 21±2° C.; lights on at 8:00 AM and off at 8:00 PM). Food and water were available ad libitum. All experimental procedures were carried out in strict accordance with the National Institutes of Health guidelines for care and use of experimental animals. After an initial habituation period of 1 week, all animals were given access to bottle containing a sucrose solution in tap water for 1 hour and were tested for the baseline data of the sucrose preference test. […]

[3] = tested on: adrenocorticotropic hormone (ACTH); assay: Neurotransmitter measurement by ELISA: ACTH; conditions: trunk blood
Method: as §1, §2

[4] = tested on: corticotropin-releasing hormone (CRH); assay: Neurotransmitter measurement by ELISA: CRH; conditions: trunk blood
Method: as §1, §2

[5] = tested on: CRH, ACTH and CORT; assay: Neurotransmitter measurement, overall statement on CRH, ACTH and CORT; conditions: chronically stressed rats
Method: The rats were housed in individual cages with light and temperature control (temperature: 21±2° C.; lights on at 8:00 AM and off at 8:00 PM). Food and water were available ad libitum. All experimental procedures were carried out in strict accordance with the National Institutes of Health guidelines for care and use of experimental animals. After an initial habituation period of 1 week, all animals were given access to bottle containing a sucrose solution in tap water for 1 hour and were tested for the baseline data of the sucrose preference test. According to the baseline data, the animals were divided into 9 groups (n=10-12 animals/each group), that is the control group, the stressed group, the stressed+fluoxetine group, the stressed+Example 1 group, the stressed+ginseng extract group, the stressed+Radix paeoniae Alba extract group, the stressed+Tree Peony Bark extract group, the stressed+Sharpleaf Galangal Fruit extract group, and the stressed+Radix Polygonum multiflorum Preparata extract group. The animals were subjected to 2 to 5 different mild stressors per day for 5 weeks. […]
as §2

[6] = Comparative study (Comparative Examples 1-7), chronically stressed rats
[7] = Experimental Example 1, chronically stressed rats
[8] = Experimental Example 2, chronically stressed rats

## CNCCC(Oc1ccc(C(F)(F)F)cc1)c1ccccc1 (centres unmarked) [fluoxetine]
[1]; [6]
  CORT: 52.46 ± 6.05 ng/mL
[1]; [7]
  CORT: 52.09 ± 5.95 ng/mL
[1]; [8]
  CORT: 52.09 ± 5.95 ng/mL
[2]; Comparative study (Comparative Example 1-7), mild stressors for 5 weeks, 0.8% sucrose vs tap water
  Sucrose Preference: 0.7502 ± 0.0471
[2]; Experimental Example 1, mild stressors for 5 weeks, 0.8% sucrose vs tap water
  Sucrose Preferenc: 0.7431 ± 0.0565
[2]; Experimental Example 2, mild stressors for 5 weeks, 0.8% sucrose vs tap water
  Sucrose Preference: 0.7431 ± 0.0565
[2]; compared with the stressed group
  Change of sucrose preference compared with the stressed group (in words): significantly increase the sucrose preference
[3]; [6]
  ACTH: 32.73 ± 2.66 pg/mL
[3]; [7]
  ACTH: 33.83 ± 2.26 pg/mL
[3]; [8]
  ACTH: 33.83 ± 2.26 pg/mL
[4]; [6]
  CRH: 5.11 ± 0.29 ng/mL
[4]; [7]
  CRH: 5.13 ± 0.25 ng/mL
[4]; [8]
  CRH: 5.13 ± 0.25 ng/mL
[5]
  Effect on the abnormal levels of CRH, ACTH and CORT caused by chronic stress (in words): improve the abnormal levels of CRH, ACTH and CORT

Reference: patent US10744173B2, “Traditional Chinese medicine compositions for alleviating stress” (Infinitus (China) Company Ltd., priority 2017, dated 2020)
